Test results: patent publication US12318369B2, “Analgesic and antipruritic pharmacertical composition and application thereof” (KEVICI (SHANGHAI) PHARMACEUTICAL CO., LTD., priority 2020, dated 2025)
Entries after “also recorded” stand apart in the source; their conditions may differ.

How the values were obtained:
[1] = test system: SNI-induced neuropathic pain C57/BJ6 mice; assay: SNI-induced neuropathic pain mouse model, mechanical pain threshold (PWT) by Von Frey; assay type: in vivo
Procedure: C57/BJ6 mice aged 5-6 weeks were purchased from Shanghai SLAC Laboratory Animal Co., Ltd and fed for 6 months. After that, the mice were placed in a transparent plexiglass chamber on an iron support. 30 minutes later, the baseline mechanical threshold (paw withdrawal threshold, PWT) of the mice was detected by Von Frey (DanMicGlobal, CA, USA). The average threshold of the mice was 1.54+0.07 g (see FIG. 1). The spared nerve injury (SNI)-induced neuropathic pain C57/BJ6 mouse model was established according to Pertin, M et al (Pertin, M., Gosselin, RD., Decosterd, I. (2012). The Spared Nerve Injury Model of Neuropathic Pain. In: Luo, Z. (eds) Pain Research. Methods in Molecular Biology, vol 851. Humana Press). The SNI-induced neuropathic pain mice were measured for the mechanical pain threshold using Von Frey respectively at 2 weeks, 4 weeks and 6 weeks post operation.
The mechanical pain threshold of mice was tested 1 hour after injection. […] Among them, the mice with poor response (ΔPWT≤ 0.2 g) accounted for 10% (2/20) of all tested mice.
20 μg/kg GNE-0439 and 90 μg/kg PF-04885614 were intraperitoneally injected into SNI mice at 6 weeks post operation. One hour later, the mechanical threshold of mice was measured using Von Frey.

[2] = Side effects observed in SNI mice after intraperitoneal injection
[3] = test system: neuropathic pain patients; details: clinical use; cited from earlier work
[4] = test system: subjects with painful diabetic peripheral neuropathy; details: randomised, placebo-controlled, double-blind clinical study; cited from earlier work

**Q.** For CCCC1CCC(c2ccc(C(=O)N[C@H](C(=O)O)C(C)C)cc2)CC1 (stereo partly shown) [GNE-0439], which ΔPWT ([1]; single administration, 20 μg/kg i.p., SNI mice 6 weeks post operation, one hour after injection) is on record?
**A.** 0.77 ± 0.14 g

**Q.** For NCC1(CC(=O)O)CCCCC1 [Gabapentin], which side effects ([2]; 100 mg/kg Gabapentin) is on record?
**A.** sedative side effects

**Q.** What about the “accompanying side effects in patients” value [3] of the same compound?
**A.** sedation effects (such as drowsiness, fatigue and dizziness)

**Q.** And the “effect on mechanical pain of SNI mice” value ([1]; 100 mg/kg i.p., 6 weeks post operation)?
**A.** relieve effect

**Q.** For COc1ccc(Cl)c(-c2ccc(NC(=O)c3ccnn3C)nc2N)c1 [PF-04531083], which side effects ([2]; 10 mg/kg PF-04531083 (effective dose)) is on record?
**A.** obvious side effects such as sedation and weight loss; also recorded: significant side effects such as sedation and weight loss

**Q.** With CC(C)(N)c1ncc(-c2ccc(OC(F)(F)F)cc2)[nH]1 [PF-04885614] as the compound, how does the “mice with poor response (ΔPWT≤0.2 g)” value ([1]; 45 μg/kg i.p., 2 weeks post operation (2/18)) read?
**A.** 11.1%

**Q.** What about the “threshold increase compared with the control group” value ([1]; 45 μg/kg i.p., 4 weeks post operation) of the same compound?
**A.** no statistically significant difference

**Q.** What about the “mice with poor response (ΔPWT≤0.2 g)” value ([1]; 45 μg/kg i.p., 4 weeks post operation (10/19)) of the same compound?
**A.** 52.6%

**Q.** What about the “mice with poor response (ΔPWT≤0.2 g)” value ([1]; 45 μg/kg i.p., 6 weeks post operation (13/17)) of the same compound?
**A.** 76.5%

**Q.** And the “increase of mechanical pain threshold (ΔPWT)” value (“increase … (ΔPWT)” below) ([1]; 45 μg/kg i.p., SNI mice 2 weeks post operation)?
**A.** 0.86 ± 0.14 g

**Q.** And the “increase … (ΔPWT)” value ([1]; 45 μg/kg i.p., SNI mice 4 weeks post operation)?
**A.** 0.21 ± 0.04 g

**Q.** And the “increase … (ΔPWT)” value ([1]; 45 μg/kg i.p., SNI mice 6 weeks post operation)?
**A.** 0.10 ± 0.04 g

**Q.** What about the “fraction of PF-05089771 poor responders that well responded” value ([1]; 90 μg/kg PF-04885614, 6 weeks post SNI operation) of the same compound?
**A.** half

**Q.** Which “efficacy in treatment of diabetic neuropathic pain” value [4] does the source give for Nc1n[nH]cc1-c1cc(Cl)ccc1Oc1cc(F)c(S(=O)(=O)Nc2cscn2)cc1Cl [PF-05089771] here?
**A.** poor efficacy

**Q.** And the “mice with poor response (ΔPWT≤0.2 g)” value ([1]; 2 mg/kg i.p., 2 weeks post operation (2/20))?
**A.** 10%

**Q.** What about the “mice with poor response (ΔPWT≤0.2 g)” value ([1]; 2 mg/kg i.p., 4 weeks post operation (10/24)) of the same compound?
**A.** 41.7%

**Q.** And the “mice with poor response (ΔPWT≤0.2 g)” value ([1]; 2 mg/kg i.p., 6 weeks post operation (16/28))?
**A.** 57.1%

**Q.** And the “increase … (ΔPWT)” value ([1]; 2 mg/kg i.p., SNI mice 2 weeks post operation, 1 hour after injection)?
**A.** 0.77 ± 0.10 g

**Q.** What about the “increase … (ΔPWT)” value ([1]; 2 mg/kg i.p., SNI mice 4 weeks post operation, 1 hour after injection) of the same compound?
**A.** 0.39 ± 0.07 g

**Q.** And the “increase … (ΔPWT)” value ([1]; 2 mg/kg i.p., SNI mice 6 weeks post operation, 1 hour after injection)?
**A.** 0.17 ± 0.03 g

**Q.** What about the “fraction of total mice that poorly responded (ΔPWT≤0.2 g)” value ([1]; 2 mg/kg, 6 weeks post SNI operation (8/12, Table 1)) of the same compound?
**A.** 2/3

**Q.** Which “accompanying side effects in patients” value [3] does the source give for CC(C)C[C@H](CN)CC(=O)O [Pregabalin] here?
**A.** sedation effects (such as drowsiness, fatigue and dizziness)
